Experimental data reported in patent US20100062067A1, “COMPOSITIONS COMPRISING MACROMOLECULAR ASSEMBLIES OF LIPID AND SURFACTANT” (MALVERN COSMECEUTICS LIMITED, priority 2006, published 2010).
Starred links: 1 amine or outer side, 2 acyl side, 3 side chain; linkers in the order of their positions; H or OH if unused. Positions of bridges follow the written chain, without caps; N, C: chain ends. Non-standard residues stand in square brackets, D forms with d. Residues, ends and D or L forms follow the SMILES beside them. X1 = CC(C)CCCCCCCCC[C@H](CC(=O)[*:1])O[*:2]

Assay: Turbidity of surfactant/lipid compositions, formation of macromolecular complexes (Example 1)
Assay type: physicochemical
Conditions: 2.5% surfactant, 1% 90H lipid, ca. 0.01% S LPC co-surfactant (as 0.05% SL 80-3) in water, room temperature
Method: Briefly, to the appropriate volume of warm water (ca. 60° C.), SL 80-3 was added. […] 90H was then added gradually, with heating and stirring maintained throughout and for a further 45 minutes after completion.
After mixing the solution was stirred and heated to around 60-70° C.
The required quantity of warm lipid emulsion was slowly added to the warm surfactant solution while stirring with the temperature maintained.
In the case of `O=C(O)c1ccccc1O` [Salicylic Acid, 2-Hydroxybenzoic acid], the “Average Turbidity” value is reported as over 150 FNU.
For Laureth-10 [P9769], the “Average Turbidity” value was 14.02 FNU.
In the case of `CCCCCCCCCC(=O)O` [Capric Acid, Decanoic acid], the “Average Turbidity” value is reported as over 150 FNU.
For `CCCCCC(=O)O` [Caproic Acid, Hexanoic acid], the “Average Turbidity” value was over 150 FNU.
In the case of “Sodium deoxycholate [reference compound]”, the “Average Turbidity” value is reported as 32.6 FNU.
For `O=C(O)c1ccccc1` [Benzoic Acid, Benzoic acid], the “Average Turbidity” value was over 150 FNU.
With `CCCCCCCCCCCCOCCOCCOCCOCCOCCOCCOCCOCCO` [compound 74680, Laureth-8] the “Average Turbidity” value was 131 FNU.
For `CCCCCCCCCCCC(=O)O` [Lauric Acid, Dodecanoic acid], the “Average Turbidity” value was over 150 FNU.
In the case of `CCCCCCCCCCCCCCCC(=O)O` [Palmitic Acid, Hexadecanoic acid], the “Average Turbidity” value is reported as over 150 FNU.
For `CC(C)CCCCCCCCC[C@@H]1CC(=O)N[C@@H](CCC(=O)O)C(=O)N[C@@H](CC(C)C)C(=O)N[C@H](CC(C)C)C(=O)N[C@@H](C(C)C)C(=O)N[C@@H](CC(=O)O)C(=O)N[C@H](CC(C)C)C(=O)N[C@@H](CC(C)C)C(=O)O1` [Aminofect, Surfactin] (EL[dL]VD[dL]L; linker N-C via X1), the “Average Turbidity” value was 13.16 FNU.
In the case of Laureth-9 [P9641], the “Average Turbidity” value is reported as over 150 FNU.
With `CCCCCCCC(=O)O` [Octanoic Acid, Octanoic acid] the “Average Turbidity” value was over 150 FNU.
In the case of `C[C@H](CCC(=O)[O-])[C@H]1CC[C@H]2[C@@H]3[C@H](O)C[C@@H]4C[C@H](O)CC[C@]4(C)[C@H]3C[C@H](O)[C@]12C.[Na+]` [Sodium cholate], the “Average Turbidity” value is reported as 23.3 FNU.
With `O=C(O)C(O)c1ccccc1` (racemic) [Mandelic Acid, DL-Mandelic acid] the “Average Turbidity” value was over 150 FNU.
In the case of `CCCCCCCC/C=C\CCCCCCCC(=O)[O-].[K+]` [Potassium Oleate, Potassium oleate], the “Average Turbidity” value is reported as over 150 FNU.

Assay: not given
Conditions: Surf. Brij 35P 2.5%, lipid 90H 1.0%, co-surf. S LPC ca. 0.01% (as SL 80-3 0.05%), active agent 0.10%
For `COc1ccc(C(=O)c2ccccc2)c(O)c1` [Eusolex 4360], the “Turbidity (FNU)” value was 10.02 FNU.
In the case of `CC(C)CCC[C@@H](C)[C@H]1CC[C@H]2C3=CC=C4C[C@@H](O)CC[C@]4(C)[C@H]3CC[C@]12C` [7-dehydrocholesterol], the “Turbidity (FNU)” value is reported as 58.4 FNU.
With `CCC(=O)O[C@]1(C(=O)CCl)[C@@H](C)C[C@H]2[C@@H]3CCC4=CC(=O)C=C[C@]4(C)[C@@]3(F)[C@@H](O)C[C@@]21C` [Clobetasol Propionate] the “Turbidity (FNU)” value was 23.3 FNU.
With `CC12CCC(CC1=O)C2(C)C` (centres unmarked) [Camphor (S-Black)] the “Turbidity (FNU)” value was 29.70 FNU.
In the case of `CCCCC(=O)O[C@]1(C(=O)CO)[C@@H](C)C[C@H]2[C@@H]3CCC4=CC(=O)C=C[C@]4(C)[C@@]3(F)[C@@H](O)C[C@@]21C` [Betamethasone 17-valerate], the “Turbidity (FNU)” value is reported as 19.24 FNU.
In the case of `O=C(O)Cc1ccccc1Nc1c(Cl)cccc1Cl` [Diclofenac], the “Turbidity (FNU)” value is reported as 14.39 FNU.
For `COc1ccc2cc([C@H](C)C(=O)O)ccc2c1` [Naproxen], the “Turbidity (FNU)” value was 14.99 FNU.
With `CC(C)CCC[C@@H](C)[C@H]1CC[C@H]2[C@@H]3CC=C4C[C@@H](OS(=O)(=O)O)CC[C@]4(C)[C@H]3CC[C@]12C` [Cholesterol sulphate] the “Turbidity (FNU)” value was 9.48 FNU.
For `NC[C@@H]1O[C@H](O[C@H]2[C@@H](O)[C@H](O[C@@H]3[C@@H](O)[C@H](N)C[C@H](N)[C@H]3O[C@H]3O[C@H](CN)[C@@H](O)[C@H](O)[C@H]3N)O[C@@H]2CO)[C@H](N)[C@@H](O)[C@@H]1O.O=S(=O)(O)O` [Neomycin sulphate], the “Turbidity (FNU)” value was 19.76 FNU.
With `O=C(CCCCc1ccc2c(c1)OCO2)N1CCCCC1` [Cosmoperine] the “Turbidity (FNU)” value was 6.38 FNU.
In the case of `O=C1OC2(c3cc(Br)c(O)c(Br)c3Oc3c2cc(Br)c(O)c3Br)c2c(Cl)c(Cl)c(Cl)c(Cl)c21` [D&C Red No. 27], the “Turbidity (FNU)” value is reported as 16.44 FNU.
In the case of `CCCCCCCCCCCCCCCC(=O)OC[C@H](O)[C@H]1OC(=O)C(O)=C1O` [Ascorbyl palmitate], the “Turbidity (FNU)” value is reported as 72.4 FNU.
With `CCCC(=O)O[C@]1(C(=O)CO)CC[C@H]2[C@@H]3CCC4=CC(=O)CC[C@]4(C)[C@H]3[C@@H](O)C[C@@]21C` [Hydrocortisone-17 butyrate] the “Turbidity (FNU)” value was 55.9 FNU.
In the case of `Clc1ccccc1C(c1ccccc1)(c1ccccc1)n1ccnc1` [Clotrimazole], the “Turbidity (FNU)” value is reported as 10.4 FNU.
With `O=C(/C=C/c1ccc(O)c(O)c1)O[C@H](Cc1ccc(O)c(O)c1)C(=O)O` [Rosmarinic acid (90%)] the “Turbidity (FNU)” value was 31.5 FNU.
For `CC(Cc1ccc(O)c(O)c1)C(C)Cc1ccc(O)c(O)c1` (centres unmarked) [NDGA], the “Turbidity (FNU)” value was 40.5 FNU.
For `Nc1ccc(C(=O)O)cc1` [PABA], the “Turbidity (FNU)” value was 8.81 FNU.
In the case of `CCCCCCCCCCCCCCCCCCOC(=O)[C@@]1(C)CC[C@]2(C)CC[C@]3(C)C(=CC(=O)[C@@H]4[C@@]5(C)CC[C@H](O)C(C)(C)[C@@H]5CC[C@]43C)[C@@H]2C1` [Stearyl glycrrhetinate], the “Turbidity (FNU)” value is reported as 88.9 FNU.
For `C[C@@H]1[C@H](O)[C@@H](C)/C=C/C=C/CC/C=C/C=C/C=C/C=C/C(O[C@H]2O[C@H](C)[C@@H](O)[C@H](N)[C@@H]2O)CC2O[C@](O)(CC(O)C(O)CCC(O)CC(O)CC(O)CC(=O)O[C@H]1C)CC(O)C2C(=O)O` (some centres unmarked) [Nystatin], the “Turbidity (FNU)” value was 21.3 FNU.
For `CC(C)CCC[C@@H](C)[C@H]1CC[C@H]2[C@@H]3CC=C4C[C@@H](O)CC[C@]4(C)[C@H]3CC[C@]12C` [Cholesterol], the “Turbidity (FNU)” value was 10.91 FNU.
With `COc1ccc(C(=O)CC(=O)c2ccc(C(C)(C)C)cc2)cc1` [Avobenzene] the “Turbidity (FNU)” value was 52.9 FNU.
In the case of `CC1=CCC(O)(C(C)C)CC1` (centres unmarked) [Melaleucol], the “Turbidity (FNU)” value is reported as 19.4 FNU.

Same assay, conditions: Surf. Brij 35P 2.5%, lipid 90H 1.0%, co-surf. S LPC ca. 0.01% (as SL 80-3 0.05%), active agent 0.20%
With `COC(=O)[C@@H]1[C@H]2C[C@H]3c4[nH]c5ccccc5c4CCN3C[C@@H]2CC[C@@H]1O.Cl` [Yohimbine HCl USP HO] the “Turbidity (FNU)” value was 22.78 FNU.

Same assay, conditions: Surf. Brij 35P 2.5%, lipid 90H 1.0%, co-surf. S LPC ca. 0.01% (as SL 80-3 0.05%), active agent 0.25%
For `CC12CCC(CC1=O)C2(C)C` (centres unmarked) [Camphor], the “Turbidity (FNU)” value was 26.80 FNU.
For `COC(=O)[C@@H]1[C@H]2C[C@H]3c4[nH]c5ccccc5c4CCN3C[C@@H]2CC[C@@H]1O.Cl` [Yohimbine HCl Crystalline], the “Turbidity (FNU)” value was 9.85 FNU.
For `C=CCCCCCCCCC(=O)N[C@@H](Cc1ccccc1)C(=O)O` [SepiWhite MSH], the “Turbidity (FNU)” value was 10.43 FNU.
For `OCc1cc(C(O)CNCCCCCCOCCCCc2ccccc2)ccc1O` (centres unmarked) [Salmeterol xinafoate], the “Turbidity (FNU)” value was 5.49 FNU.
With `COC(=O)[C@@H]1[C@H]2C[C@H]3c4[nH]c5ccccc5c4CCN3C[C@@H]2CC[C@@H]1O.Cl` [Yohimbine HCl USP] the “Turbidity (FNU)” value was 13.42 FNU.
In the case of `C[C@]12CCC(=O)C=C1CC[C@@H]1[C@@H]2[C@@H](O)C[C@@]2(C)[C@H]1CC[C@]2(O)C(=O)CO` [Hydrocortisone], the “Turbidity (FNU)” value is reported as 10.00 FNU.
With `O=C(OCc1ccccc1)c1cccnc1` [Benzyl nicotinate] the “Turbidity (FNU)” value was 18.84 FNU.
With `Cc1cc(CC(C)CC(C)(C)C)n(O)c(=O)c1.NCCO` (centres unmarked) [Octopirox ®] the “Turbidity (FNU)” value was 9.10 FNU.
With `CC1CCC(C(C)C)C(OC(=O)[C@@H]2CCC(=O)N2)C1` (some centres unmarked) [Questice CQ U/A] the “Turbidity (FNU)” value was 46.81 FNU.
For `CC(C)c1c(O)ccc2c1CC[C@H]1C(C)(C)CCC[C@]21C` [Totarol ®], the “Turbidity (FNU)” value was 12.89 FNU.

Same assay, conditions: Surf. Brij 35P 2.5%, lipid 90H 1.0%, co-surf. S LPC ca. 0.01% (as SL 80-3 0.05%), active agent 0.80%
With `Cc1cc(CC(C)CC(C)(C)C)n(O)c(=O)c1.NCCO` (centres unmarked) [Octopirox ®] the “Turbidity (FNU)” value was 6.91 FNU.

Same assay, conditions: Surf. Brij 35P 2.5%, lipid 90H 1%, co-surf. S LPC ca. 0.01% (as SL 80-3 0.05%), active agent […]
With `CC12CCC(/C(=C\c3ccccc3)C1=O)C2(C)C` (centres unmarked) [Unisol S-22] the “Turbidity (FNU)” value was 14.59 FNU.

Same assay, conditions: Surf. Protasorb L-20 2.5%, lipid 90H 1.0%, co-surf. S LPC ca. 0.01% (as SL 80-3 0.05%), active agent 0.10%
In the case of Vitamin E, the “Turbidity (FNU)” value is reported as 29.60 FNU.

Same assay, conditions: Surf. Volpo L23 2.5%, lipid 90H 1.0%, co-surf. S LPC ca. 0.01% (as SL 80-3 0.05%), active agent 0.10%
In the case of `O=C1OC2(c3cc(Br)c(O)c(Br)c3Oc3c2cc(Br)c(O)c3Br)c2c(Cl)c(Cl)c(Cl)c(Cl)c21` [D&C Red No. 27], the “Turbidity (FNU)” value is reported as 21.85 FNU.

Same assay, conditions: Surf. Volpo L23 2.5%, lipid 90H 1.0%, co-surf. S LPC ca. 0.01% (as SL 80-3 0.05%), active agent 0.25%
In the case of `CCCCCCCCCCCCCCOC(=O)[C@@H]1CCC(=O)N1` [Myristidone ®], the “Turbidity (FNU)” value is reported as 58.60 FNU.
In the case of `CCCCCCCCCCCCOC(=O)[C@@H]1CCC(=O)N1` [Laurydone ®], the “Turbidity (FNU)” value is reported as 61.70 FNU.
For `Cc1c(C2(c3cc(Br)c(O)c(Br)c3C)OS(=O)(=O)c3ccccc32)cc(Br)c(O)c1Br` [Bromocresol Green], the “Turbidity (FNU)” value was 19.40 FNU.
In the case of `Clc1ccc(COC(Cn2ccnc2)c2ccc(Cl)cc2Cl)cc1` (centres unmarked) [Econazole nitrate], the “Turbidity (FNU)” value is reported as 71.50 FNU.
For `Cc1cc(C2CCCCC2)n(O)c(=O)c1` [Ciclopirox olamine, reference compound], the “Turbidity (FNU)” value was 10.85 FNU.

Assay: not given
Conditions: literature or reported; cited from earlier work
For `CCCCCCCCCCCCOCCOCCOCCOCCOCCOCCOCCOCCO` [compound 74680, Laureth-8], the HLB number is given as 13.1.

Same assay, conditions: rough average of manufacturer and literature values; cited from earlier work
For Laureth-10 [P9769], the “Average HLB” value is given as 13.5.
In the case of “Sodium deoxycholate [reference compound]”, the “Average HLB” value is listed as 24.
In the case of `CCCCCCCCCCCCOCCOCCOCCOCCOCCOCCOCCOCCO` [compound 74680, Laureth-8], the “Average HLB” value is listed as 13.1.
In the case of Laureth-9 [P9641], the “Average HLB” value is listed as 13.3.
